# Measured values reported in publication PMC3914206.
# What was measured:
# panel of 442 kinases [1] = target: T1, panel of 442 kinases (Homo sapiens, UniProt Q9UBE8); assay type: binding; details: Compound Concentration 10 µM
# T1 construct: purchased KINOMEscan
# T1 sequence (Q9UBE8 1-527): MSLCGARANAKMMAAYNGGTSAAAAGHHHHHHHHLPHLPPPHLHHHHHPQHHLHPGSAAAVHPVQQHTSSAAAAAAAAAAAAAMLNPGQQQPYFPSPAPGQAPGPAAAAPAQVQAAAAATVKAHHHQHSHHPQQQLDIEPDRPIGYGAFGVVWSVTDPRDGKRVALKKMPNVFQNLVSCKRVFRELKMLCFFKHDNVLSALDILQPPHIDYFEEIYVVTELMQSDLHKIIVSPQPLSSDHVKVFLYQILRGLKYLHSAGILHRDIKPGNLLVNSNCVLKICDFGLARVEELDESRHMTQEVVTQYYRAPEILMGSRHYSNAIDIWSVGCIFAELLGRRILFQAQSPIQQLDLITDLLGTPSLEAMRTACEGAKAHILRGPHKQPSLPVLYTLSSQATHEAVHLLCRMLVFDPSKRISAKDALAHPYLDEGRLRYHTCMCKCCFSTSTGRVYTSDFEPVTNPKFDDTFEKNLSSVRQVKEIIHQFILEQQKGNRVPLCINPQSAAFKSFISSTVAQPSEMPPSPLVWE
# Description: (§1) We assessed the selectivity of members of this scaffold using the KINOMEscan methodology across a near comprehensive panel of 442 kinases [[18,27]].
# panel of 442 kinases [2] = target: T2, panel of 442 kinases (Homo sapiens, UniProt Q6P3R8); assay type: binding; details: Compound Concentration 10 µM
# T2 construct: purchased KINOMEscan
# T2 sequence (Q6P3R8 1-708): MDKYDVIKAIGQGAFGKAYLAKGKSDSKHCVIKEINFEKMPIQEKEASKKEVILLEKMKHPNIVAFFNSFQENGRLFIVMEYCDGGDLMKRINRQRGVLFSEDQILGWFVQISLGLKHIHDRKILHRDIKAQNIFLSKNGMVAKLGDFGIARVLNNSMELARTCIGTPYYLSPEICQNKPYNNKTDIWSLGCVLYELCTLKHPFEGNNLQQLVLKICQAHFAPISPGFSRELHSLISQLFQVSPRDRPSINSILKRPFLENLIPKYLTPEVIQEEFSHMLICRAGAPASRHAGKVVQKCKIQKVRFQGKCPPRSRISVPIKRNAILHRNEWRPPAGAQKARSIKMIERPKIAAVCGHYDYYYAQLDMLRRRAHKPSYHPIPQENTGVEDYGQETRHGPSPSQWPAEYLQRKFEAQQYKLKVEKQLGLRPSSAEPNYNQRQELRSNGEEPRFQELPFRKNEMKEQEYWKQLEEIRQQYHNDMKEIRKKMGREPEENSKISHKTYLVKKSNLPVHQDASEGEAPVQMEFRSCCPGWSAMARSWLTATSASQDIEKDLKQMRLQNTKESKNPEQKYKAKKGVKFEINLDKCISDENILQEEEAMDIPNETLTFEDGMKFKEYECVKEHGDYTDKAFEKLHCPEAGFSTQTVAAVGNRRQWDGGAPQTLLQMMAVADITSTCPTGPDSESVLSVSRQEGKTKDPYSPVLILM
# Description: as §1
SMILES,KINOMEscan: NLK (panel of 442 kinases [1]),KINOMEscan: NEK5 (panel of 442 kinases [2])
COc1cc(C(=O)N2CCC(N3CCN(C)CC3)CC2)ccc1Nc1ncc2c(n1)N(C)c1ccccc1C(=O)N2C [15 (LRRK2-IN-1)],50,100
COc1cc(C(=O)N2CCC(N3CCN(C)CC3)CC2)ccc1Nc1ncc2c(n1)N1CCc3cccc(c31)C(=O)N2C [Compound 24],68,57
"COc1cc(C(=O)N2CCC(N3CCN(C)CC3)CC2)ccc1Nc1ncc2c(n1)N(C1CCCC1)c1ccccc1C(=O)N2C [Compound 25, 11-cyclopentyl-2-((2-methoxy-4-(4-(4-methylpiperazin-1-yl)piperidine-1-carbonyl)phenyl)amino)-5-methyl-5H-benzo[e]pyrimido[5,4-b][1,4]diazepin-6(11H)-one]",63,100
CCOc1cc(C(=O)N2CCC(N3CCN(C)CC3)CC2)ccc1Nc1ncc2c(n1)N(C1CCCC1)c1ccccc1C(=O)N2C [Compound 26],78,100
